Assay [1] has as its target His-His-(EK)-hsBCLXL(2-197)[N197C] (Homo sapiens (Human), UniProt Q07817, N197C). The assay is described as follows: Fluorescence quenching assay. The settings on record: 1 nM Cy5-labelled protein, 400 nM PUMA peptide, 2 hours at 23° C.; KI determined from IC50. It is filed as binding. The text has this:
Fluorescence quenching assay measures the change in fluorescence intensity of C-terminally Cy5-labelled BCL-xL protein, His-His-(EK)-hsBCLXL(2-197)[N197C] (UniProtKB®
which is linked in C-terminal region to the amino acid X which corresponds to a cysteine labelled on the sulfur with Sulfo-Cyanine5 from Lumiprobe GmbH catalogue number 13380, upon binding of a C-terminally labelled peptide derived from PUMA (UniProtKB® primary accession number Q9BXH1) having an aminoacid sequence (SEQ ID:04): [[…]] which is linked in C-terminal region to the amino acid X′ where X′ is cysteine labelled on the sulfur with TQ5WS from AAT Bioquest catalogue number 2079.
The addition of a compound which binds competitively to the same site as the peptide will result in an increase in the fluorescence intensity of the protein due to displacement of the fluorescence quencher.
An 11-point serial dilution of each compound was prepared in DMSO, the final buffer conditions were 10 mM 4-(2-hydroxyethyl)-1-piperazineethanesulfonic acid [HEPES], 150 mM NaCl, 0.05% Tween 20, pH 7.4 and 5% DMSO. The final protein concentration in the assay was 1 nM with the peptide present at 400 nM. The experiments were incubated for 2 hours at 23° C. before fluorescence intensity was measured on a Biotek SynergyNeo plate reader (Excitation 620 nm, emission 680 nm). […] The K1 values were determined from the IC50 values according to Cer et al, Nucleic Acids Res, 2009, Jul. 1; 37 (WebServer issue): W441-W445.

The next assay relates to MOLT-4 cells. The assay is described as follows: MOLT-4 cell viability using MTT assay. Conditions: Homo sapiens, MOLT-4, 48 h, 48 h exposure. It counts as cell-based. The protocol:
MTT colorimetric assay is based on the mitochondrial reduction of tetrazolium salt by living cells.
Cells were cultured at 37° C. in a humidified atmosphere containing 5% CO2. […] At the end of incubation time, 15 μL of MTT solution (5 mg/ml) were added per well and the cells were incubated for another 4 h. […] IC50s were calculated using standard four-parametric curve fitting.

Sequence of His-His-(EK)-hsBCLXL(2-197)[N197C] (Q07817 2-197 N197C): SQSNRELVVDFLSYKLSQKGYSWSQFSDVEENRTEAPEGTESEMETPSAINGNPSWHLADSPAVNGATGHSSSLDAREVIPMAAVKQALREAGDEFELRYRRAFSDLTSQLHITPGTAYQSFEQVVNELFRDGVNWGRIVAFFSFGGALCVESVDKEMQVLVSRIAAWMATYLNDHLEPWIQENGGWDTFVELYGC

`Cc1c(Nc2nc3ccccc3s2)nnc2c1CCCN2c1ccc(-c2cnn(CC34CC5(C)CC(C)(C3)CC(OCCNC(CO)CO)(C5)C4)c2C)c(C(=O)O)n1` [Example 135, 6-[3-(1,3-benzothiazol-2-ylamino)-4-methyl-6,7-dihydro-5H-pyrido[2,3-c]pyridazin-8-yl]-3-[1-[[3-[2-[[2-hydroxy-1-(hydroxymethyl)ethyl]amino]ethoxy]-5,7-dimethyl-1-adamantyl]methyl]-5-methyl-pyrazol-4-yl]pyridine-2-carboxylic acid]: the Ki in assay [1] amounted to 0.0018 nM. The molecule further had an IC50 in the assay on MOLT-4 cells of 3.05 nM. In the assay with MOLT-4 cells, `Cc1c(Nc2nc3ccccc3s2)nnc2c1CCCN2c1ccc(-c2cnn(CC34CC5(C)CC(C)(C3)CC(OCCN(CCCO)CCCO)(C5)C4)c2C)c(C(=O)O)n1` [Example 137, 6-[3-(1,3-benzothiazol-2-ylamino)-4-methyl-6,7-dihydro-5H-pyrido[2,3-c]pyridazin-8-yl]-3-[1-[[3-[2-[bis(3-hydroxypropyl)amino]ethoxy]-5,7-dimethyl-1-adamantyl]methyl]-5-methyl-pyrazol-4-yl]pyridine-2-carboxylic acid] returned a concentration for half-maximal inhibition (IC50) of 5.78 nM. As for `Cc1c(Nc2nc3ccccc3s2)nnc2c1CCCN2c1ccc(-c2cnn(CC34CC5(C)CC(C)(C3)CC(OCCNCc3ccc(O)cc3)(C5)C4)c2C)c(C(=O)O)n1` [Example 149, 6-[3-(1,3-benzothiazol-2-ylamino)-4-methyl-6,7-dihydro-5H-pyrido[2,3-c]pyridazin-8-yl]-3-[1-[[3-[2-[(4-hydroxyphenyl)methylamino]ethoxy]-5,7-dimethyl-1-adamantyl]methyl]-5-methyl-pyrazol-4-yl]pyridine-2-carboxylic acid], the Ki in assay [1] came out at 0.0037 nM. Moreover, the IC50 in the assay with MOLT-4 cells worked out at 0.982 nM. Turning to `Cc1c(Nc2nc3ccccc3s2)nnc2c1CCCN2c1ccc(-c2cnn(CC34CC5(C)CC(C)(CC(CCCNCCCO)(C5)C3)C4)c2C)c(C(=O)O)n1` [Example 170, 6-[3-(1,3-benzothiazol-2-ylamino)-4-methyl-6,7-dihydro-5H-pyrido[2,3-c]pyridazin-8-yl]-3-[1-[[3-[3-(3-hydroxypropylamino)propyl]-5,7-dimethyl-1-adamantyl]methyl]-5-methyl-pyrazol-4-yl]pyridine-2-carboxylic acid], in assay [1], the Ki was 0.0027 nM. In the assay with MOLT-4 cells, this molecule yielded an IC50 of 0.787 nM. In the same order, the values of `Cc1c(Nc2nc3ccccc3s2)nnc2c1CCCN2c1ccc(-c2cnn(CC34CC5(C)CC(C)(C3)CC(OCCN(CCO)CCO)(C5)C4)c2C)c(C(=O)O)n1` [Example 134, 6-[3-(1,3-benzothiazol-2-ylamino)-4-methyl-6,7-dihydro-5H-pyrido[2,3-c]pyridazin-8-yl]-3-[1-[[3-[2-[bis(2-hydroxyethyl)amino]ethoxy]-5,7-dimethyl-1-adamantyl]methyl]-5-methyl-pyrazol-4-yl]pyridine-2-carboxylic acid] are 0.0028 nM and 1.57 nM. Consider `Cc1c(Nc2nc3ccccc3s2)nnc2c1CCCN2c1ccc(-c2cnn(CC34CC5CC(C3)CC(OCCNCC[C@H](O)CO)(C5)C4)c2C)c(C(=O)O)n1` [Example 160, 6-[3-(1,3-benzothiazol-2-ylamino)-4-methyl-6,7-dihydro-5H-pyrido[2,3-c]pyridazin-8-yl]-3-[1-[[3-[2-[[(3S)-3,4-dihydroxybutyl]amino]ethoxy]-1-adamantyl]methyl]-5-methyl-pyrazol-4-yl]pyridine-2-carboxylic acid], for which the IC50 in the assay with MOLT-4 cells was above 100 nM. With `Cc1c(Nc2nc3cc(O)ccc3s2)nnc2c1CCCN2c1ccc(-c2cnn(CC34CC5(C)CC(C)(C3)CC(OCCN3CCCC3)(C5)C4)c2C)c(C(=O)O)n1` [Example 152, 3-[1-[[3,5-dimethyl-7-(2-pyrrolidin-1-ylethoxy)-1-adamantyl]methyl]-5-methyl-pyrazol-4-yl]-6-[3-[(5-hydroxy-1,3-benzothiazol-2-yl)amino]-4-methyl-6,7-dihydro-5H-pyrido[2,3-c]pyridazin-8-yl]pyridine-2-carboxylic acid], the Ki in assay [1] was determined as 0.0017 nM. Still for that read-out and setting: the value for `CNCCCc1ccc(OCCCc2sc(N3CCCc4c3nnc(Nc3nc5ccccc5s3)c4C)nc2C(=O)O)c(F)c1` [Example 34, 2-{3-[(1,3-Benzothiazol-2-yl)amino]-4-methyl-5H,6H,7H,8H-pyrido[2,3-c]pyridazin-8-yl}-5-(3-{2-fluoro-4-[3-(methylamino)propyl]phenoxy}propyl)-1,3-thiazole-4-carboxylic acid] was 0.0019 nM; that for `Cc1c(Nc2nc3ccccc3s2)nnc2c1CCCN2c1nc(C(=O)O)c(CCCOc2cc3c(cc2F)CN(C)CC3)s1` [Example 74, 2-{3-[(1,3-Benzothiazol-2-yl)amino]-4-methyl-5H,6H,7H,8H-pyrido[2,3-c]pyridazin-8-yl}-5-{3-[(7-fluoro-2-methyl-1,2,3,4-tetrahydroisoquinolin-6-yl)oxy]propyl}-1,3-thiazole-4-carboxylic acid] was 0.01 nM.

Regarding `Cc1c(Nc2nc3ccccc3s2)nnc2c1CCCN2c1ccc(-c2cnn(CC34CC5(C)CC(C)(C3)CC(OCCNCCCO)(C5)C4)c2C)c(C(=O)O)n1` [Example 138, 6-[3-(1,3-benzothiazol-2-ylamino)-4-methyl-6,7-dihydro-5H-pyrido[2,3-c]pyridazin-8-yl]-3-[1-[[3-[2-(3-hydroxypropylamino)ethoxy]-5,7-dimethyl-1-adamantyl]methyl]-5-methyl-pyrazol-4-yl]pyridine-2-carboxylic acid], the midpoint of inhibition in the assay with MOLT-4 cells, the IC50, lay at 1.01 nM. Same read-out and setting: the value for `Cc1c(Nc2nc3ccccc3s2)nnc2c1CCCN2c1ccc(-c2cnn(CC34CC5CC(C3)CC(OCCN3CCCC3)(C5)C4)c2C)c(C(=O)O)n1` [Example 155, 6-[3-(1,3-benzothiazol-2-ylamino)-4-methyl-6,7-dihydro-5H-pyrido[2,3-c]pyridazin-8-yl]-3-[5-methyl-1-[[3-(2-pyrrolidin-1-ylethoxy)-1-adamantyl]methyl]pyrazol-4-yl]pyridine-2-carboxylic acid] was 0.543 nM. As for `Cc1c(Nc2nc3ccccc3s2)nnc2c1CCCN2c1nc(C(=O)O)c(CCCOc2ccc(C#CCN(CC(C)C)CC(C)C)cc2F)s1` [Example 87, 2-[3-(1,3-Benzothiazol-2-ylamino)-4-methyl-6,7-dihydro-5H-pyrido[2,3-c]pyridazin-8-yl]-5-[3-[4-[3-(diisobutylamino)prop-1-ynyl]-2-fluoro-phenoxy]propyl]thiazole-4-carboxylic acid], the Ki in assay [1] is 0.044 nM.

Molecule `Cc1c(Nc2nc3ccccc3s2)nnc2c1CCCN2c1ccc(-c2cnn(CC34CC5CC(C3)CC(OCCN(C)C)(C5)C4)c2C)c(C(=O)O)n1` [Example 154, 6-[3-(1,3-benzothiazol-2-ylamino)-4-methyl-6,7-dihydro-5H-pyrido[2,3-c]pyridazin-8-yl]-3-[1-[[3-[2-(dimethylamino)ethoxy]-1-adamantyl]methyl]-5-methyl-pyrazol-4-yl]pyridine-2-carboxylic acid] had an IC50 with MOLT-4 cells of 0.449 nM. Same read-out and setting: as for `COc1ccc2sc(Nc3nnc4c(c3C)CCCN4c3ccc(-c4cnn(CC56CC7(C)CC(C)(C5)CC(OCCN5CCCC5)(C7)C6)c4C)c(C(=O)O)n3)nc2c1` [Example 180, 3-[1-[[3,5-dimethyl-7-(2-pyrrolidin-1-ylethoxy)-1-adamantyl]methyl]-5-methyl-pyrazol-4-yl]-6-[3-[(5-methoxy-1,3-benzothiazol-2-yl)amino]-4-methyl-6,7-dihydro-5H-pyrido[2,3-c]pyridazin-8-yl]pyridine-2-carboxylic acid], the figure is 0.13 nM.

The values are drawn from patent US12570648B2, “6,7-dihydro-5H-pyrido[2,3-c]pyridazine derivatives and related compounds as Bcl-xL protein inhibitors and pro-apoptotic agents for treating cancer” (LES LABORATOIRES SERVIER, priority 2019, dated 2026).
